Results taken from patent EP0185020B1, “NI[…] PREPARATION THEREOF AND UTILIZATION THEREOF IN ANTICANCEROUS CHEMIOTHERAPY” (CENTRE NATIONAL DE LA RECHERCHE SCIENTIFIQUE (CNRS), priority 1984, dated 1985).

How the values were obtained:
Assay type in all cases: in vivo, souris B6D2F1/OLA
souche leucémique L1210 = assay: Antitumour activity on L1210 leukaemia inoculated i.p. in mice (ICIG, Example 11); details: for indices I: dose not given; for survie à 60 jours: à différentes doses
Description: L'activité oncostatique de ces dérivés nitrosés a été déterminée à l'ICIG de Villejuif (Service du Pr. Mathe), en suivant un protocole expérimental décrit: M. Hayat et Coll., Cancer Chemother. Phar- macol., 1979, 3,217-221, R. Maral et Coll., Eur. J. Med. Chem., soumis pour publication.
(§1) Des souris B6D2F1/OLA, mâles, sont inoculées avec 10^5 cellules de la souche leucémique L1210 par voie intrapéritonéale au jour 0 et divisées en groupes. Le premier est le groupe témoin et les autres sont traités avec les drogues à différentes concentrations au jour 1,5 et 9. Les composés sont injectés en suspension dans l'huile d'olive. La mortalité des animaux est observée et l'autopsie indique si elle est due à la leucémie ou à l'action toxique des produits.
(§2) La dose létale 50% (DL50 aiguë) est déterminée en tenant compte de la mortalité survenue avant le huitième jour chez les animaux traités au jour J: 1. La médiane de survie des animaux traités (mT) et des animaux témoin (mC) a été établie et le test statistique non paramétrique de Wilcoxon a été utilisé. Les résultats sont considérés positifs si l'indice I (I = ^mT x 100) est supérieur à 125 et le test mC significatif à p ≼ 0,05. La valeur ∞ indique que 50% ou plus des animaux sont survivants au jour +60.
Plus l'intervalle des doses à efficacité maximale, ayant donc I = ∞, est important, plus le produit est doué d'une activité intéressante sur la leucémie L1210.

[1] = Acute lethal dose 50% (DL50 aiguë), i.p.; details: i.p.; mortality before day 8 in animals treated on day 1; 11520 min
Description: as §1, §2

[2] = test system: leucémie L 1210 greffée i.p.; assay: Antitumour activity on L1210 leukaemia grafted i.p. in mice, A1 and A2 injected separately (ICIG, Example 12); details: for T/C × 100: i.v.
Description: Au jour J: 0, des souris mâles B6D2F1 âgées de trois mois reçoivent par voie intrapéritonéale 10^5 cellules de la souche leucémique L 1210. Les animaux sont répartis en lots de 8 à 10 animaux pour les groupes témoins et de 6 à 8 animaux pour les groupes traités. Aux jours J : 1, J : 5, J : 9, les animaux reçoivent par voie intrapéritonéale ou intraveineuse le traitement à différentes doses. La CNCC est administrée en suspension dans l'huile d'olive. Les produits selon l'invention sont administrés dans du sérum physiologique. La mortalité est enregistrée tous les jours. La médiane de survie des animaux traités et des animaux témoins a été déterminée. Les résultats sont considérés comme positifs lorsque l'index I = [formula] est supérieur à 125.
La valeur ∞ signifie que 50 à 100% des animaux sont survivants au jour J : 90.
L'activité cytostatique sur la leucémie L 1210 de A, et A2 a été évaluée à l'ICIG chez des souris B6D2F1/OLA.
II a en outre été procédé à l'ICIG à une étude de l'activité antitumorale sur la leucémie L 1210 de chaque isomère A, et AZ administré séparément par voie intraveineuse. Les résultats sont rassemblés sur le tableau IV. […] La comparaison des doses actives à celles de la CNCC est impossible pour les raisons d'insolubilité de la CNCC énoncées précédemment.

Row | Structure (SMILES) | I = T/c × 100 (souche leucémique L1210; 0,8 mg/kg i.p., jours 1,5,9) | I = T/c × 100 (souche leucémique L1210; 0,32 mg/kg i.p., jours 1,5,9) | I = T/c × 100 (souche leucémique L1210; 2 mg/kg i.p., jours 1,5,9) | % de survivants à 60 jours (souche leucémique L1210; 5 mg/kg i.p., jours 1,5,9) | I = T/c × 100 (souche leucémique L1210; 5 mg/kg i.p., jours 1,5,9) | I = T/c × 100 (souche leucémique L1210; 15 mg/kg i.p., jours 1,5,9) | % de survivants à 60 jours (souche leucémique L1210; 12,5 mg/kg i.p., jours 1,5,9) | I = T/c × 100 (souche leucémique L1210; 12,5 mg/kg i.p., jours 1,5,9) | indices I (souche leucémique L1210) | survie à 60 jours (souche leucémique L1210) | DL 50 [1] | % de survivants à 60 jours (souche leucémique L1210; 10 mg/kg i.p., jours 1,5,9) | I = T/c × 100 (souche leucémique L1210; 10 mg/kg i.p., jours 1,5,9) | also measured
1 | CSCCNC(=O)N(CCCl)N=O [(3) ICIG 2017, S-méthyl N-[N-(chloro-2 éthyl)N-nitrosocarbamoyl] cystéamine] | 167 | 133 | 158 | 100% | ∞ (La valeur ∞ indique que 50% ou plus des animaux sont survivants au jour +60) | 156 | 87% | ∞ (La valeur ∞ indique que 50% ou plus des animaux sont survivants au jour +60) | infini | 100% | 22 mg/kg |  |  | 
2 | CC(=O)SCCNC(=O)N(CCCl)N=O [(5) ICIG 2018, S-acétyl N-[N-(chloro-2 éthyl) N-nitrosocarbamoyl] cystéamine] |  |  |  | 14% | 217 | 490 | 80% | ∞ (La valeur ∞ indique que 50% ou plus des animaux sont survivants au jour +60) | infini | 100% | 25 mg/kg | 100% | ∞ (La valeur ∞ indique que 50% ou plus des animaux sont survivants au jour +60) | I = T/c × 100 (souche leucémique L1210; 0,64 mg/kg i.p., jours 1,5,9): 100; I = T/c × 100 (souche leucémique L1210; 4 mg/kg i.p., jours 1,5,9): 158; % de survivants à 60 jours (souche leucémique L1210; 15 mg/kg i.p., jours 1,5,9): 25%; I = T/c × 100 (souche leucémique L1210; 20 mg/kg i.p., jours 1,5,9): 211; I = T/c × 100 (souche leucémique L1210; 1,6 mg/kg i.p., jours 1,5,9): 117
3 | O=NN(CCCl)C(=O)NCCS [(1) ICIG 2016, N-[N-(chloro-2 éthyl) N-nitrosocarbamoyl] cystéamine] | 162 | 265 | 188 | 100% | ∞ (La valeur ∞ indique que 50% ou plus des animaux sont survivants au jour +60) |  | 100% | ∞ (La valeur ∞ indique que 50% ou plus des animaux sont survivants au jour +60) | infini | 100% | 19 mg/kg | 100% | ∞ (La valeur ∞ indique que 50% ou plus des animaux sont survivants au jour +60) | % de survivants à 60 jours (souche leucémique L1210; 15 mg/kg i.p., jour + 1): 100%; I = T/c × 100 (souche leucémique L1210; 15 mg/kg i.p., jour + 1): ∞ (La valeur ∞ indique que 50% ou plus des animaux sont survivants au jour +60)
4 | C[S+]([O-])CCN(N=O)C(=O)NCCCl (stereo not drawn) [A1] |  |  |  |  |  |  |  |  |  |  |  |  |  | activité antitumorale sur la leucémie L 1210, in words ([2]; each isomer given separately i.v.): faible activité; T/C × 100 ([2]; 5 mg/kg): 100; T/C × 100 ([2]; 10 mg/kg): 100; T/C × 100 ([2]; 20 mg/kg): 133; T/C × 100 ([2]; 30 mg/kg): 133; T/C × 100 ([2]; 40 mg/kg): 158; T/C × 100 ([2]; 50 mg/kg): 158; T/C × 100 ([2]; 60 mg/kg): Toxique
